The nature of data set [1]: Preparation and characterisation of mRNA-encapsulating lipid nanoparticle (encapsulation efficiency, particle size). Type of data set: physicochemical. Particulars: LNP encapsulating Fluc mRNA; Lipid:DSPC:CHO-HP:M-DMG-2000 48:10:40.5:1.5. In short, it runs like this: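 Fluc mRNA in sodium acetate buffer mixed with ethanolic amino lipid:DSPC:CHO-HP:M-DMG-2000 (48:10:40.5:1.5 molar) by microfluidics, mRNA:lipid mass ratio 1:10, then dialysed 2 h against Tris-8% sucrose and 0.22 μm filtered. Final mRNA 0.2 g/L; particle size and encapsulation efficiency measured.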

Data set [2] concerns Female BALB/c mice. In words: IFN-γ Elispot cellular immunity test, spleen lymphocytes of mice immunized with IN002.5.1 mRNA LNP. Type of data set: in vivo. Particulars: 50 μL IM, spleen on 7th day after immunization, FIG. 2-4.
Data set [3] has as its system Female BALB/c mice. Description: Humoral immunity test for total binding IgG antibody (ELISA, SARS-COV-2 antigen protein) in serum of immunized mice. Particulars: IN002.5.1 mRNA LNP, 50 μL IM, serum on 14th day after immunization; FIG. 5-6. Type of data set: in vivo. Background: In an ELISA, binding on a coated surface is turned into a signal by an enzyme label.

In the case of `CCCCCCC(CCCCCC)OC(=O)CCCCCCCCC(CCCCCCCCC(=O)OC(CCCCCC)CCCCCC)OC(=O)N(CCCN(C)C)CCC(=O)OCCCC` [Compound 264], in data set [1], the Encapsulation efficiency was 94.12%. Also, the “Cellular immunity effect (IFN-γ Elispot) compared to ALC0315” value in data set [2] is recorded as “better cellular immunity effect”. Also, in data set [3], the “Humoral immunity effect (IgG titer) compared to ALC0315” value is reported as “better humoral immunity effect”.

Take `CCCCCCCOC(=O)CCN(CCCN(C)C)C(=O)OC(CCCCCCCCC(=O)OC(CCCCCC)CCCCCC)CCCCCCCCC(=O)OC(CCCCCC)CCCCCC` [Compound 267]: the Encapsulation efficiency in data set [1] worked out at 93.13%. Further, in data set [2], the “Cellular immunity effect (IFN-γ Elispot) compared to ALC0315” value is given as “better cellular immunity effect”.

On to `CCCCCCC(CCCCCC)OC(=O)CCCCCCCCC(CCCCCCCCC(=O)OC(CCCCCC)CCCCCC)OC(=O)N(CCCN(C)C)CC(=O)OCCCC` [Compound 270], for which, in data set [1], the Encapsulation efficiency was 93.46%. Also, the “Cellular immunity effect (IFN-γ Elispot) compared to ALC0315” value in data set [2] is reported as “better cellular immunity effect”. Moreover, the “Humoral immunity effect (IgG titer) compared to ALC0315” value in data set [3] is “better humoral immunity effect”.

Compound `CCCCCCOC(=O)CN(CCCN(C)C)C(=O)OC(CCCCCCCCC(=O)OC(CCCCCC)CCCCCC)CCCCCCCCC(=O)OC(CCCCCC)CCCCCC` [Compound 272] displayed an Encapsulation efficiency in data set [1] of 93.96%. Also, the “Cellular immunity effect (IFN-γ Elispot) compared to ALC0315” value in data set [2] is recorded as “better cellular immunity effect”.

In data set [1], `CCCCCCCOC(=O)CN(CCCN(C)C)C(=O)OC(CCCCCCCCC(=O)OC(CCCCCC)CCCCCC)CCCCCCCCC(=O)OC(CCCCCC)CCCCCC` [Compound 273] had an Encapsulation efficiency of 87.42%. Moreover, the “Cellular immunity effect (IFN-γ Elispot) compared to ALC0315” value in data set [2] is on record as “better cellular immunity effect”. Further, the “Humoral immunity effect (IgG titer) compared to ALC0315” value in data set [3] is reported as “better humoral immunity effect”.

The values are drawn from patent US20250250227A1, “AMINO LIPID COMPOUND, PREPARATION METHOD THEREFOR, COMPOSITION THEREOF AND USE THEREOF” (SHENZHEN SHENXIN BIOTECHNOLOGY CO., LTD., priority 2022, published 2025).
